Test results: US20260158002A1, “APPLICATION OF COMPOSITION CONTAINING EDARAVONE AND DEXBORNEOL IN IMPROVING OR TREATING COGNITIVE IMPAIRMENT” (NEURODAWN PHARMACEUTICAL CO., LTD., priority 2021, published 2026)

Experiments:
[1] = system: 5×FAD transgenic mice; assay: Y maze test in 5×FAD transgenic mice; type: in vivo, mouse; conditions: 5×FAD mice; edaravone 6 mg/kg or composition 7.5 mg/kg i.p. once daily for 16 weeks
Protocol: (§1) In the experiment, the animals were divided into 4 groups. Administration was performed on the mice in each group from 8 weeks of age. After 16 weeks of continuous daily administration, water maze and Y maze behavioral tests were performed. After the behavioral tests were completed, the animals were sacrificed, and brain slice electrophysiology and AD pathology within the brain were tested, including the test of Aβ plaques, biomarkers such as GFAP and Iba-1, p-Tau, etc.
5×FAD: edaravone group: ten 5×FAD mice were given edaravone ( ? ®) 6 mg/kg via i.p. at a dose of 10.0 mL/kg once daily.
5×FAD: composition group: ten 5×FAD mice were given 7.5 mg/kg edaravone and dexborneol concentrated solution for injection ( ? ®) (edaravone:dexborneol=4:1, containing 6 mg/kg edaravone and 1.5 mg/kg dexborneol) at a dose of 10.0 ml/kg once daily. […]
Testing: After 1 h of training, the baffle was removed, the channel of the Y maze was wiped with alcohol to remove the odor of the previous mouse, the mouse to be tested was placed in the same position for 5 min and video recording was performed, and the number of times the mouse entered the newly opened arm as a percentage of the total number of times it entered the three arms was recorded in the test.
(§2) Data were expressed as Mean±SEM. […]

[2] = system: 5×FAD transgenic mice; assay: Brain slice electrophysiology test (hippocampal LTP) in 5×FAD transgenic mice; type: in vivo, mouse; conditions: brain slices after 16 weeks of administration; edaravone 6 mg/kg or composition 7.5 mg/kg i.p. once daily
Protocol: as §1
Electrophysiological recording was performed after the behavioral test of mice was completed. After anesthesia, all mice were euthanized, the brain tissues were rapidly collected and stored in 4° C. oxygenated (95% O2/5% CO2) artificial cerebrospinal fluid (ACSF) (75 mM sucrose, 87 mM NaCl, 2.5 mM KCl), 1.25 mM NaH2PO4, 21.4 mM NaHCO3, 0.5 mM CaCl2, 7 mM MgCl2 and 20 mM glucose. Hippocampal slices were cut by a vibrating knife in 4° C. oxygenated ACSF, and in 32° C. oxygenated ACSF. Next, the slices were incubated at room temperature for 1 hour before recording. Hippocampal LTP was induced by two theta burst stimulations (TBS). Data acquisition and analysis were performed using Clampex and Clampfit 8.2 (Molecular Devices).
as §2

[3] = system: 5×FAD transgenic mice; assay: AD pathology examination (immunohistochemical test) in 5×FAD transgenic mice; type: in vivo, mouse; conditions: 5×FAD mice; edaravone 6 mg/kg or composition 7.5 mg/kg i.p. once daily for 16 weeks
Protocol: as §1
After the behavioral test of animals was completed, the mice were subjected to cardiac perfusion followed by brain removal, and the brain was fixed in 4% paraformaldehyde for 24 h, dehydrated with 30% sucrose, snap-frozen and embedded with an embedding medium, and sliced (thickness […]). The brain slices having the hippocampal region were selected, washed with PBS for 5 min×3 times, permeabilized with 0.2% Triton, washed with PBS for 7 min×3 times, and blocked with Blocking buffer (2.5% BSA, 0.3% Triton) for 1 h. The brain slices were placed in a primary antibody overnight at 4° C. On the second day, the brain slices in the primary antibody were taken out, washed with PBS for 5 min×3 times, placed in a second antibody, and incubated for 1 h at room temperature in the dark. The brain slices were taken out and washed with PBS for 5 min×3 times. An anti-fluorescence quencher containing DAPI was added dropwise, and the slices were mounted.
Data were expressed as Mean±SEM. Statistical analysis between groups was performed using Prism software (GraphPad, USA): One-way or Two-way ANOVA was used for comparison of two or more groups, and then Fisher's LSD test was selected for analysis. P<0.05 indicated significant difference. ##p<0.01, ###p<0.001, ####p<0.0001, comparison with WT group; *p<0.05, **p<0.01, […], ****p<0.0001, comparison with model group; & p<0.05, &&p<0.01, &&&&p<0.0001, comparison between two groups indicated.

[4] = target: Aβ1-42 (Homo sapiens, UniProt P05067); conditions: in vitro; concentration range of 0.156 to 5 μM; cited from earlier work
[5] = system: SH-SY5Y-APP695; conditions: 0.3 to 3 μM; cited from earlier work
[6] = system: rat model of scopolamine-induced dementia; conditions: oral 15 mg/kg/day for 7 consecutive days; cited from earlier work
[7] = system: rat model in which oligomerized Aβ1-40 is injected into the hippocampal dentate gyrus; conditions: edaravone 5 mg/kg at the same site with intracerebral Aβ injection; cited from earlier work
[8] = system: rat model of L-methionine-induced vascular dementia; conditions: intraperitoneal 6 mg/kg/day for 9 consecutive weeks; cited from earlier work
[9] = mice; cited from earlier work

Chain of Aβ1-42 (P05067 672-713 limits assumed): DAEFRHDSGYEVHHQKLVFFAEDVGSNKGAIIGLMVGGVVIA

In the case of `CC1=NN(c2ccccc2)C(=O)C1` [edaravone, 3-methyl-1-phenyl-2-pyrazolin-5-one], the “number of times the mouse entered the newly opened arm in Y maze, vs solvent control” value [1] is reported as “could significantly increase the number of times the mouse entered the newly opened arm”, the “restoration of hippocampal LTP, vs 5×FAD mouse group” value [2] is reported as “no obvious restoration effect” and the “astrogliosis within the brain, vs solvent control group” value [3] is reported as “could significantly decrease”. The “hippocampal tau protein hyperphosphorylation, vs solvent control group” value [3] was “could significantly decrease”, the “microgliosis within the brain, vs solvent control group” value [3] was “could significantly decrease” and the “β-amyloid plaques within the brain, vs solvent control group” value [3] was “could significantly decrease”. The “aggregation of Aβ1-42 monomer as Aβ fibrils and disaggregation of Aβ fibrils” value [4] was “capable of inhibiting the aggregation of Aβ1-42 monomer as Aβ fibrils and disaggregating Aβ fibrils in a concentration-dependent manner”, the “BACE1 expression, cleavage of APP and Aβ production” value [5] was “capable of reducing BACE1 expression, cleavage of APP and Aβ production in a concentration-dependent manner” and the “GSK-3β activation and tau phosphorylation” value [5] was “inhibiting GSK-3β activation and reducing tau phosphorylation”. The “scopolamine-induced spatial learning and long-term memory impairments” value [6] was “can improve scopolamine-induced spatial learning and long-term memory impairments”, the “spatial learning and memory in water maze” value [7] was “can significantly improve the spatial learning and memory of rats in water maze” and the “spatial learning and memory in eight-arm water maze test” value [8] was “can significantly improve the spatial learning and memory of the model rats in eight-arm water maze test”. For the same compound, the oral bioavailability [9] was 38%.
